Laboratory results from paper PMC7377239, “Cardiovascular Effects of Polychlorinated Biphenyls and Their Major Metabolites” (Environmental Health Perspectives, 2020).
Where a name gives a salt, the structure may show the parent alone. Read-outs that look alike come from different tables or passages of the source.

Tested on: iCell cardiomyocytes (human iPSC-derived cardiomyocytes)
Test: High-content imaging of cytotoxicity and mitochondrial integrity in iPSC-CMs
Assay type: cell-based
Conditions: Homo sapiens; for viability at 0.01 µM / activity at 0.01 µM / viability at 0.1 µM / activity at 0.1 µM / viability at 1 µM / activity at 1 µM / viability at 10 µM / activity at 10 µM / viability at 100 µM / activity at 100 µM: 0.00 µM = 100.00; for viability at 0.1 µM / activity at 0.1 µM: 0.10 µM
Summary of the method: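 This assay measured cytotoxicity and mitochondrial integrity in iPSC cardiomyocytes held in 40μL maintenance medium. After compound exposure, a 2× staining solution with Hoechst 33342 (4μg/mL) and MitoTracker™ Orange (0.4μM) was applied for 15 min at 37°C. Cells were washed, fixed with 3.7% formaldehyde, imaged on DAPI and Cy3 channels, and scored in MetaXpress®.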

[1] = Cardiomyocyte, 1.5 h, read-out: cm.cam.90min
[2] = Cardiomyocyte, 1.5 h, read-out: cm.mii.90min
[3] = Cardiomyocyte, 1.5 h, read-out: cm.mito.90min
[4] = Cardiomyocyte, 1.5 h, read-out: cm.tc.90min
[5] = Cardiomyocyte, 24 h, read-out: cm.cam.24hrs
[6] = Cardiomyocyte, 24 h, read-out: cm.mii.24hrs
[7] = Cardiomyocyte, 24 h, read-out: cm.mito.24hrs
[8] = Cardiomyocyte, 24 h, read-out: cm.tc.24hrs
[9] = iPSC-CM, 1.5 h, iPSC-CM, read-out: cm.cam.90min POD
[10] = iPSC-CM, 1.5 h, iPSC-CM, read-out: cm.mii.90min POD
[11] = iPSC-CM, 1.5 h, iPSC-CM, read-out: cm.mito.90min POD
[12] = iPSC-CM, 1.5 h, iPSC-CM, read-out: cm.tc.90min POD
[13] = iPSC-CM, 24 h, iPSC-CM, read-out: cm.cam.24hrs POD
[14] = iPSC-CM, 24 h, iPSC-CM, read-out: cm.mii.24hrs POD
[15] = iPSC-CM, 24 h, iPSC-CM, read-out: cm.mito.24hrs POD
[16] = iPSC-CM, 24 h, iPSC-CM, read-out: cm.tc.24hrs POD
[17] = Cardiomyocyte, 1.5 h, cardiomyocytes (cm), cam, 90 min, read-out: POD cm.cam.90min
[18] = Cardiomyocyte, 1.5 h, cardiomyocytes (cm), mii, 90 min, read-out: POD cm.mii.90min
[19] = Cardiomyocyte, 1.5 h, cardiomyocytes (cm), mito, 90 min, read-out: POD cm.mito.90min
[20] = Cardiomyocyte, 1.5 h, cardiomyocytes (cm), tc, 90 min, read-out: POD cm.tc.90min
[21] = Cardiomyocyte, 24 h, cardiomyocytes (cm), cam, 24 hrs, read-out: POD cm.cam.24hrs
[22] = Cardiomyocyte, 24 h, cardiomyocytes (cm), mii, 24 hrs, read-out: POD cm.mii.24hrs
[23] = Cardiomyocyte, 24 h, cardiomyocytes (cm), mito, 24 hrs, read-out: POD cm.mito.24hrs
[24] = Cardiomyocyte, 24 h, cardiomyocytes (cm), tc, 24 hrs, read-out: POD cm.tc.24hrs

For `COc1ccc(-c2ccc(Cl)cc2)cc1` [4'-OMe PCB3], the viability at 0.01 µM [1] was 95%, the activity at 0.01 µM [2] was 107% and the activity at 0.01 µM [3] was 94.4%. It also gave a viability at 0.01 µM [4] of 94.9%, a viability at 0.1 µM [1] of 96% and an activity at 0.1 µM [2] of 114%. For the same compound, the activity at 0.1 µM [3] was 96%, the viability at 0.1 µM [4] was 96.1% and the viability at 1 µM [1] was 103%. It also gave an activity at 1 µM [2] of 103%, an activity at 1 µM [3] of 102% and a viability at 1 µM [4] of 103%. For the same compound, the viability at 10 µM [1] was 102%, the activity at 10 µM [2] was 109% and the activity at 10 µM [3] was 101%. It also gave a viability at 10 µM [4] of 101%, a viability at 100 µM [1] of 104% and an activity at 100 µM [2] of 99.8%. It also gave an activity at 100 µM [3] of 104%, a viability at 100 µM [4] of 105% and a viability at 0.01 µM [5] of 104%. It also gave an activity at 0.01 µM [6] of 87%, an activity at 0.01 µM [7] of 105% and a viability at 0.01 µM [8] of 105%. For the same compound, the viability at 0.1 µM [5] was 102%, the activity at 0.1 µM [6] was 85.8% and the activity at 0.1 µM [7] was 104%. The viability at 0.1 µM [8] was 102%, the viability at 1 µM [5] was 104% and the activity at 1 µM [6] was 98%. For the same compound, the activity at 1 µM [7] was 104%, the viability at 1 µM [8] was 104% and the viability at 10 µM [5] was 104%. For the same compound, the activity at 10 µM [6] was 83.8%, the activity at 10 µM [7] was 104% and the viability at 10 µM [8] was 104%. The viability at 100 µM [5] was 92.3%, the activity at 100 µM [6] was 122% and the activity at 100 µM [7] was 94.2%. The viability at 100 µM [8] was 92.4%, the minimal effective concentration [9] was 100 µM and the minimal effective concentration [10] was 100 µM. For the same compound, the minimal effective concentration [11] was 100 µM, the minimal effective concentration [12] was 100 µM and the minimal effective concentration [13] was 82.9 µM. The minimal effective concentration [14] was 100 µM, the minimal effective concentration [15] was 100 µM and the minimal effective concentration [16] was 100 µM.

With `O=S(=O)(O)Oc1cccc(-c2ccc(Cl)cc2)c1` [3'-PCB 3 sulfate] the minimal effective concentration [17] was 100 µM, the minimal effective concentration [18] was 89.9 µM and the minimal effective concentration [19] was 100 µM. For the same compound, the minimal effective concentration [20] was 100 µM, the minimal effective concentration [21] was 100 µM and the minimal effective concentration [22] was 100 µM. For the same compound, the minimal effective concentration [23] was 100 µM and the minimal effective concentration [24] was 100 µM.

Work on `Clc1ccc(Cl)c(-c2c(Cl)ccc(Cl)c2Cl)c1` [PCB 95, 2,2′,3,5′,6-pentachlorobiphenyl] yielded a minimal effective concentration [17] of 36.6 µM, a minimal effective concentration [18] of 100 µM and a minimal effective concentration [19] of 39.6 µM. For the same compound, the minimal effective concentration [20] was 38.7 µM, the minimal effective concentration [21] was 8.98 µM and the minimal effective concentration [22] was 22.2 µM. It also gave a minimal effective concentration [23] of 8.96 µM and a minimal effective concentration [24] of 8.75 µM.

In the case of `Clc1ccc(-c2ccccc2)cc1` [PCB3], the viability at 0.01 µM [1] is reported as 104%, the activity at 0.01 µM [2] is reported as 107% and the activity at 0.01 µM [3] is reported as 104%. The viability at 0.01 µM [4] was 104%, the viability at 0.1 µM [1] was 97.8% and the activity at 0.1 µM [2] was 103%. For the same compound, the activity at 0.1 µM [3] was 97.7%, the viability at 0.1 µM [4] was 97.7% and the viability at 1 µM [1] was 98.5%. The activity at 1 µM [2] was 104%, the activity at 1 µM [3] was 98.3% and the viability at 1 µM [4] was 98.2%. It also gave a viability at 10 µM [1] of 99.9%, an activity at 10 µM [2] of 109% and an activity at 10 µM [3] of 99.6%. For the same compound, the viability at 10 µM [4] was 99.5%, the viability at 100 µM [1] was 40.3% and the activity at 100 µM [2] was 141%. The activity at 100 µM [3] was 39.3%, the viability at 100 µM [4] was 40.4% and the viability at 0.01 µM [5] was 87.6%. It also gave an activity at 0.01 µM [6] of 109%, an activity at 0.01 µM [7] of 84.7% and a viability at 0.01 µM [8] of 87.2%. The viability at 0.1 µM [5] was 96%, the activity at 0.1 µM [6] was 101% and the activity at 0.1 µM [7] was 93.1%. It also gave a viability at 0.1 µM [8] of 95.9%, a viability at 1 µM [5] of 95.4% and an activity at 1 µM [6] of 97.1%. The activity at 1 µM [7] was 91%, the viability at 1 µM [8] was 95.3% and the viability at 10 µM [5] was 91.4%. It also gave an activity at 10 µM [6] of 87.2%, an activity at 10 µM [7] of 87.8% and a viability at 10 µM [8] of 90.8%. For the same compound, the viability at 100 µM [5] was 1.51%, the activity at 100 µM [6] was 32% and the activity at 100 µM [7] was 0.72%. For the same compound, the viability at 100 µM [8] was 1.49%, the minimal effective concentration [9] was 24.9 µM and the minimal effective concentration [10] was 6.86 µM. The minimal effective concentration [11] was 21.2 µM, the minimal effective concentration [12] was 20 µM and the minimal effective concentration [13] was 7.4 µM. It also gave a minimal effective concentration [14] of 10.9 µM, a minimal effective concentration [15] of 6.67 µM and a minimal effective concentration [16] of 6.97 µM.

With `Oc1cc(Cl)cc(-c2cccc(Cl)c2)c1` [5-OH-PCB 11] the minimal effective concentration [17] was 16.2 µM, the minimal effective concentration [18] was 34.1 µM and the minimal effective concentration [19] was 13.8 µM. It also gave a minimal effective concentration [20] of 14 µM, a minimal effective concentration [21] of 13.8 µM and a minimal effective concentration [22] of 8.43 µM. For the same compound, the minimal effective concentration [23] was 14.6 µM and the minimal effective concentration [24] was 10.7 µM.
